Here are results for 17 compounds from patent publication US11174250B2, “Substituted carboxamides as inhibitors of WDR5 protein-protein binding” (PROPELLON THERAPEUTICS INC., priority 2016, dated 2021).

Structures are written as SMILES. Where two headings read alike, the source gives them in different places.

One test deals with WDR5 protein (Homo sapiens (Human), UniProt P61964). The test is described as follows: Surface Plasmon Resonance (SPR) assay. Type of test: binding. The conditions noted are these: for residence time: τ=1/koff, read-out: Residence Time (t, min).
The next test concerns the target MLL1-WRAD2 complex (Homo sapiens (Human), UniProt P61964). The test is described as follows: MLL1-WRAD2 enzyme assay (in vitro methyl transferase assay). Type of test: biochemical. As for the experimental part: Reaction was initiated with 1 μM 3H-SAM and incubated for 1 hour at 30° C. Reaction mixture was transferred to P81 filter-paper and washed with PBS before detection.

The next test deals with MV4-11 cells. The test is described as follows: Cell proliferation assay (ATPlite). As to conditions: Homo sapiens, MV4-11, 120 h; MV-411 cells, five days; read-out: In vitro whole cell potency in MV-411 cells, (IC50). The format is cell-based. As for the experimental part: MV4-11 cells were seeded into a 96-well plate at 1,000 cells/well in 150 μl medium (Alpha-MEM containing 10% FBS, 100 μg/ml Normocin, and 50 μg/ml Gentamycin, Invitrogen). A HP D300 digital dispenser was used to dose cells with DMSO or test compounds across a 10-point range of concentrations (high dose of 10 μM), and cultures were grown in a humidified 5% CO2 incubator at 37° C. After five days, plates were removed from incubator and equilibrated to room temperature. An equal volume of ATPlite assay reagent was added to each well, and samples were processed according to manufacturer's instructions (Perkin Elmer). Luminescent signal was measured using an Envision plate reader equipped with a US-Luminescence detector.
For orientation: Cellular ATP, detected with luciferase, serves as a proxy for viable cell number.

Where [1] appears, read: SPR, Table 1, read-out: WDR5 binding affinity (KD).
[2] abbreviates: SPR, Table 2, read-out: WDR5 binding affinity SPR (KD).
[3] abbreviates: MLL1-WRAD2 assay, read-out: In vitro MLL1 activity (IC50).

As for `COCOc1cc(F)c(-c2ccc(N3CCN(C)CC3)c(NC(=O)c3c[nH]c(=O)cc3C(F)(F)F)c2)cc1C(=O)NC(C)(C)CC(C)(C)C` [Example 3, N-(2′-fluoro-4′-(methoxymethoxy)-4-(4-methylpiperazin-1-yl)-5′-((2,4,4-trimethylpentan-2-yl)carbamoyl)-[1,1′-biphenyl]-3-yl)-6-oxo-4-(trifluoromethyl)-1,6-dihydropyridine-3-carboxamide], the Kd at WDR5 protein (setting [1]) and at WDR5 protein (setting [2]) was 11 nM each time. Further, the residence time (as a rule, the mean lifetime of the complex, commonly the reciprocal of the off-rate) at WDR5 protein (SPR) came to 6.4 min. Further, the IC50 (commonly the concentration needed to halve the response being measured) on MLL1-WRAD2 complex (setting [3]) is 966 nM; in the test with MV4-11 cells, 3180 nM.
Regarding `CN1CCN(c2ccc(-c3cc(CNC4CCCCC4)ccc3F)cc2NC(=O)c2c[nH]c(=O)cc2C(F)(F)F)CC1` [Example 7, N-(5′-((cyclohexylamino)methyl)-2′-fluoro-4-(4-methylpiperazin-1-yl)-[1,1′-biphenyl]-3-yl)-6-oxo-4-(trifluoromethyl)-1,6-dihydropyridine-3-carboxamide], the Kd on WDR5 protein (setting [1]) and at WDR5 protein (setting [2]) was 4 nM in each case. Besides, the residence time at WDR5 protein (SPR) turned out to be 7.88 min. Further, the IC50 was found to be 216 nM on MLL1-WRAD2 complex (setting [3]) and 410 nM in the test with MV4-11 cells.
`CN1CCN(c2ccc(-c3cc(OCC4CC4)ncc3F)cc2NC(=O)c2c[nH]c(=O)cc2C(F)(F)F)CC1` [Example 15, N-(5-(2-(cyclopropylmethoxy)-5-fluoropyridin-4-yl)-2-(4-methylpiperazin-1-yl)phenyl)-6-oxo-4-(trifluoromethyl)-1,6-dihydropyridine-3-carboxamide]: the Kd at WDR5 protein (setting [1]) and at WDR5 protein (setting [2]) was 9 nM throughout. Moreover, at WDR5 protein (SPR), the residence time stood at 4.04 min. In addition, the values for the IC50 at MLL1-WRAD2 complex (setting [3]) and with MV4-11 cells were 2250 nM and 2260 nM, respectively.
Consider `CN1CCN(c2ccc(-c3ccc(OCC4CC4)nc3F)cc2NC(=O)c2c[nH]c(=O)cc2C(F)(F)F)CC1` [Example 16, N-(5-(6-(cyclopropylmethoxy)-2-fluoropyridin-3-yl)-2-(4-methylpiperazin-1-yl)phenyl)-6-oxo-4-(trifluoromethyl)-1,6-dihydropyridine-3-carboxamide], for which the Kd on WDR5 protein (setting [1]) and on WDR5 protein (setting [2]) was 10 nM each time. In addition, at WDR5 protein (SPR), the residence time worked out at 5.25 min. Further, the results for the IC50 at MLL1-WRAD2 complex (setting [3]) and in the test with MV4-11 cells were 1470 nM and 5970 nM, respectively.
`CC1CN(c2ccc(-c3cc(CN4CCOCC4)ccc3F)cc2NC(=O)c2c[nH]c(=O)cc2C(F)(F)F)CCN1C` (stereo not shown) [Example 26, N-(4-(3,4-dimethylpiperazin-1-yl)-2′-fluoro-5′-(morpholinomethyl)-[1,1′-biphenyl]-3-yl)-6-hydroxy-4-(trifluoromethyl)nicotinamide]: the Kd on WDR5 protein (setting [1]) and at WDR5 protein (setting [2]) was 9 nM throughout. Also, at WDR5 protein (SPR), the residence time came to 3.07 min. Moreover, the IC50 in the test with MV4-11 cells was found to be 491 nM.
Take `C[C@@H]1CN(c2ccc(-c3cc(CN4CCOCC4)ccc3F)cc2NC(=O)c2c[nH]c(=O)cc2C(F)(F)F)C[C@H](C)N1C` [Example 27, N-(2′-fluoro-5′-(morpholinomethyl)-4-((3S,5R)-3,4,5-trimethylpiperazin-1-yl)-[1,1′-biphenyl]-3-yl)-6-oxo-4-(trifluoromethyl)-1,6-dihydropyridine-3-carboxamide]: the Kd on WDR5 protein (setting [1]) and at WDR5 protein (setting [2]) was 8 nM throughout. Besides, the residence time on WDR5 protein (SPR) came out at 5.84 min. Besides, the figures for the 50% inhibitory concentration (IC50) on MLL1-WRAD2 complex (setting [3]) and in the test on MV4-11 cells were 529 nM and 737 nM, respectively.
On to `CN1CCN(c2ccc(-c3cc(OC4CCOCC4)ncc3F)cc2NC(=O)c2c[nH]c(=O)cc2C(F)(F)F)CC1` [Example 31, N-(5-(5-fluoro-2-((tetrahydro-2H-pyran-4-yl)oxy)pyridin-4-yl)-2-(4-methylpiperazin-1-yl)phenyl)-6-oxo-4-(trifluoromethyl)-1,6-dihydropyridine-3-carboxamide], for which the Kd at WDR5 protein (setting [1]) and on WDR5 protein (setting [2]) was 9 nM in each case. Besides, the residence time at WDR5 protein (SPR) turned out to be 5.76 min. Besides, the values for the IC50 at MLL1-WRAD2 complex (setting [3]) and in the test with MV4-11 cells were 1740 nM and 1280 nM, respectively.
Turning to `CN1CCN(c2ccc(-c3cc(C(=O)NC4CCCCC4)ccc3F)cc2NC(=O)c2c[nH]c(=O)cc2C(F)(F)F)CC1` [Example 32, N-(5′-(cyclohexylcarbamoyl)-2′-fluoro-4-(4-methylpiperazin-1-yl)-[1,1′-biphenyl]-3-yl)-6-oxo-4-(trifluoromethyl)-1,6-dihydropyridine-3-carboxamide], the Kd at WDR5 protein (setting [1]) and on WDR5 protein (setting [2]) was 6 nM in each case. On WDR5 protein (SPR), the residence time was found to be 9.48 min. Further, the IC50 came out at 332 nM on MLL1-WRAD2 complex (setting [3]) and 680 nM in the test on MV4-11 cells.
For the compound `CN1CCN(c2ccc(-c3cc(CNC4CCOCC4)ccc3F)cc2NC(=O)c2c[nH]c(=O)cc2C(F)(F)F)CC1` [Example 37, N-(2′-fluoro-4-(4-methylpiperazin-1-yl)-5′-(((tetrahydro-2H-pyran-4-yl)amino)methyl)-[,1′-biphenyl]-3-yl)-6-oxo-4-(trifluoromethyl)-1,6-dihydropyridine-3-carboxamide], the figures for the equilibrium dissociation constant (Kd) on WDR5 protein (setting [1]) and on WDR5 protein (setting [2]) were 5 nM and 6 nM, respectively. The residence time at WDR5 protein (SPR) came to 4.38 min. The half-maximal inhibitory concentration (IC50) on MLL1-WRAD2 complex (setting [3]) came to 1300 nM; with MV4-11 cells, 2910 nM.
On the same counts, the results for `CN1CCN(c2ccc(-c3ccc(CN4CCOCC4)cc3F)cc2NC(=O)c2c[nH]c(=O)cc2C(F)(F)F)CC1` [Example 38, N-(2′-fluoro-4-(4-methylpiperazin-1-yl)-4′-(morpholinomethyl)-[1,1′-biphenyl]-3-yl)-6-oxo-4-(trifluoromethyl)-1,6-dihydropyridine-3-carboxamide] are 8 nM, 8 nM, 3.42 min, 3990 nM and over 10000 nM.
On the same counts, the results for `CN1CCN(c2ccc(-c3ccnc(N4CCOCC4)c3F)cc2NC(=O)c2c[nH]c(=O)cc2C(F)(F)F)CC1` [Example 39, N-(5-(3-fluoro-2-morpholinopyridin-4-yl)-2-(4-methylpiperazin-1-yl)phenyl)-6-oxo-4-(trifluoromethyl)-1,6-dihydropyridine-3-carboxamide] are 28 nM, 28 nM, 1.46 min, 2510 nM and over 10000 nM.
The corresponding values for `C[C@@H]1CN(c2ccc(-c3cc(CNC4CCCCC4)ccc3F)cc2NC(=O)c2c[nH]c(=O)cc2C(F)(F)F)C[C@H](C)N1C` [Example 45, N-(5′-((cyclohexylamino)methyl)-2′-fluoro-4-((3S,5R)-3,4,5-trimethylpiperazin-1-yl)-[1,1′-biphenyl]-3-yl)-6-oxo-4-(trifluoromethyl)-1,6-dihydropyridine-3-carboxamide] are 2 nM, 2 nM, 31.9 min, 514 nM and 74 nM.
For `C[C@@H]1CN(c2ccc(-c3cc(C(=O)NC4CCCCC4)ccc3F)cc2NC(=O)c2c[nH]c(=O)cc2C(F)(F)F)C[C@H](C)N1C` [Example 46, N-(5′-(cyclohexylcarbamoyl)-2′-fluoro-4-((3S,5R)-3,4,5-trimethylpiperazin-1-yl)-[1,1′-biphenyl]-3-yl)-6-oxo-4-(trifluoromethyl)-1,6-dihydropyridine-3-carboxamide], the Kd on WDR5 protein (setting [1]) and on WDR5 protein (setting [2]) was 0.95 nM in each case. Moreover, the residence time at WDR5 protein (SPR) was determined as 74.4 min. For the same compound, the IC50 was determined as 290 nM at MLL1-WRAD2 complex (setting [3]) and 118 nM in the test on MV4-11 cells.
With `C[C@@H]1CN(c2ccc(-c3cc(C(=O)N4CCOCC4)ccc3F)cc2NC(=O)c2c[nH]c(=O)cc2C(F)(F)F)C[C@H](C)N1C` [Example 47, N-(2′-fluoro-5′-(morpholine-4-carbonyl)-4-((3S,5R)-3,4,5-trimethylpiperazin-1-yl)-[1,1′-biphenyl]-3-yl)-6-oxo-4-(trifluoromethyl)-1,6-dihydropyridine-3-carboxamide], the Kd at WDR5 protein (setting [1]) and at WDR5 protein (setting [2]) was 8 nM each time. For the same compound, the residence time on WDR5 protein (SPR) turned out to be 9.58 min. Further, the values for the IC50 on MLL1-WRAD2 complex (setting [3]) and in the test on MV4-11 cells were 2390 nM and 1990 nM, respectively.
Take `CN1CCN(c2ccc(-c3cc(CN4CCOCC4)ccc3F)cc2NC(=O)c2c[nH]c(=O)cc2C(F)F)CC1` [Example 49, 4-(difluoromethyl)-N-(2′-fluoro-4-(4-methylpiperazin-1-yl)-5′-(morpholinomethyl)-[1,1′-biphenyl]-3-yl)-6-oxo-1,6-dihydropyridine-3-carboxamide]: the Kd at WDR5 protein (setting [1]) and on WDR5 protein (setting [2]) was 7 nM each time. Moreover, the residence time at WDR5 protein (SPR) was found to be 3.89 min. The IC50 is 1570 nM at MLL1-WRAD2 complex (setting [3]) and 2240 nM with MV4-11 cells.
`C[C@@H]1CN(c2ccc(-c3cc(OCC4CC4)ncc3F)cc2NC(=O)c2c[nH]c(=O)cc2C(F)(F)F)C[C@H](C)N1C` [Example 50, N-(5-(2-(cyclopropylmethoxy)-5-fluoropyridin-4-yl)-2-((3S,5R)-3,4,5-trimethylpiperazin-1-yl)phenyl)-6-oxo-4-(trifluoromethyl)-1,6-dihydropyridine-3-carboxamide]: the Kd on WDR5 protein (setting [1]) and on WDR5 protein (setting [2]) was 4 nM in each case. Moreover, the residence time on WDR5 protein (SPR) worked out at 12.6 min. Also, the concentration for half-maximal inhibition (IC50) at MLL1-WRAD2 complex (setting [3]) turned out to be 1790 nM; with MV4-11 cells, 943 nM.
`CN1CCN(c2ccc(-c3cc(CN4CCC(F)CC4)ccc3F)cc2NC(=O)c2c[nH]c(=O)cc2C(F)(F)F)CC1` [drawing 287] gave a τ on WDR5 protein (Table 4, effect of Fluoro-substitution) of 5.44 min. The Kd (commonly the free concentration of one partner at which half of the binding sites on the other are occupied at equilibrium, for simple one-to-one binding) on WDR5 protein (Table 4, effect of Fluoro-substitution, read-out: KD (SPR)) was 11 nM. Besides, on MLL1-WRAD2 complex (Table 4, effect of Fluoro-substitution, read-out: IC50 (MLL1)), the IC50 worked out at 592 nM.
